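Results reflect a 48-hour exposure of cells in 96-well plates to compound at five concentrations. TGI is the concentration that stops growth completely.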
Assays:
Assay in all cases: NCI-60 cell line screen, 48 h
U251 CNS = tested on: U251 CNS
SN12C renal = tested on: SN12C renal
K-562 leukemia = tested on: K-562 leukemia
SNB-75 CNS = tested on: SNB-75 CNS
SNB-19 CNS = tested on: SNB-19 CNS
KM20L2 colon = tested on: KM20L2 colon
SF-539 CNS = tested on: SF-539 CNS
TK-10 renal = tested on: TK-10 renal
LXFL 529 NSCLC = tested on: LXFL 529 NSCLC
HOP-18 NSCLC = tested on: HOP-18 NSCLC
HCT-15 colon = tested on: HCT-15 colon
HOP-62 NSCLC = tested on: HOP-62 NSCLC
SF-295 CNS = tested on: SF-295 CNS
SF-268 CNS = tested on: SF-268 CNS
HT29 colon = tested on: HT29 colon
OVCAR-8 ovarian = tested on: OVCAR-8 ovarian
DMS 114 small cell lung = tested on: DMS 114 small cell lung
SNB-78 CNS = tested on: SNB-78 CNS
786-0 renal = tested on: 786-0 renal
OVCAR-4 ovarian = tested on: OVCAR-4 ovarian
ACHN renal = tested on: ACHN renal
RPMI-8226 leukemia = tested on: RPMI-8226 leukemia
OVCAR-3 ovarian = tested on: OVCAR-3 ovarian
UACC-257 melanoma = tested on: UACC-257 melanoma
SK-MEL-28 melanoma = tested on: SK-MEL-28 melanoma
HCC-2998 colon = tested on: HCC-2998 colon
NCI-H460 lung = tested on: NCI-H460 lung
HCT-116 colon = tested on: HCT-116 colon
CCRF-CEM leukemia = tested on: CCRF-CEM leukemia
NCI-H226 lung = tested on: NCI-H226 lung
SW-620 colon = tested on: SW-620 colon
OVCAR-5 ovarian = tested on: OVCAR-5 ovarian
MALME-3M melanoma = tested on: MALME-3M melanoma
SR leukemia = tested on: SR leukemia
CAKI-1 renal = tested on: CAKI-1 renal
LOX IMVI melanoma = tested on: LOX IMVI melanoma
KM12 colon = tested on: KM12 colon
A498 renal = tested on: A498 renal
M19-MEL melanoma = tested on: M19-MEL melanoma
RXF 393 renal = tested on: RXF 393 renal
MOLT-4 leukemia = tested on: MOLT-4 leukemia
NCI-H23 lung = tested on: NCI-H23 lung
COLO 205 colon = tested on: COLO 205 colon
UACC-62 melanoma = tested on: UACC-62 melanoma
HOP-92 NSCLC = tested on: HOP-92 NSCLC
SK-MEL-2 melanoma = tested on: SK-MEL-2 melanoma
SK-OV-3 ovarian = tested on: SK-OV-3 ovarian
HL-60(TB) leukemia = tested on: HL-60(TB) leukemia
DMS 273 small cell lung = tested on: DMS 273 small cell lung
IGROV1 ovarian = tested on: IGROV1 ovarian
DLD-1 colon = tested on: DLD-1 colon
NCI-H522 lung = tested on: NCI-H522 lung
M14 melanoma = tested on: M14 melanoma
UO-31 renal = tested on: UO-31 renal
SK-MEL-5 melanoma = tested on: SK-MEL-5 melanoma
A549 NSCLC = tested on: A549 NSCLC
EKVX NSCLC = tested on: EKVX NSCLC
XF 498 CNS = tested on: XF 498 CNS

Measured: TGI

NC(N)=C1CN(C2CCCCC2)C(=O)NC1=O
> 100 µM: U251 CNS | SN12C renal | K-562 leukemia | SNB-75 CNS | SNB-19 CNS | KM20L2 colon | SF-539 CNS | TK-10 renal | LXFL 529 NSCLC | HOP-18 NSCLC | HCT-15 colon | HOP-62 NSCLC | SF-295 CNS | SF-268 CNS | HT29 colon | OVCAR-8 ovarian | DMS 114 small cell lung | SNB-78 CNS | 786-0 renal | OVCAR-4 ovarian | ACHN renal | RPMI-8226 leukemia | OVCAR-3 ovarian | UACC-257 melanoma | SK-MEL-28 melanoma | HCC-2998 colon | NCI-H460 lung | HCT-116 colon | CCRF-CEM leukemia | NCI-H226 lung | SW-620 colon | OVCAR-5 ovarian | MALME-3M melanoma | SR leukemia | CAKI-1 renal | LOX IMVI melanoma | KM12 colon | A498 renal | M19-MEL melanoma | RXF 393 renal | MOLT-4 leukemia | NCI-H23 lung | COLO 205 colon | UACC-62 melanoma | HOP-92 NSCLC | SK-MEL-2 melanoma | SK-OV-3 ovarian | HL-60(TB) leukemia | DMS 273 small cell lung | IGROV1 ovarian | DLD-1 colon | NCI-H522 lung | M14 melanoma | UO-31 renal | SK-MEL-5 melanoma | A549 NSCLC

Nc1nc2c(nc(N)n2Cc2ccccc2)c(=O)[nH]1
> 100 µM: U251 CNS | SN12C renal | K-562 leukemia | SNB-75 CNS | SNB-19 CNS | KM20L2 colon | TK-10 renal | EKVX NSCLC | LXFL 529 NSCLC | HCT-15 colon | HOP-62 NSCLC | SF-295 CNS | SF-268 CNS | HT29 colon | OVCAR-8 ovarian | DMS 114 small cell lung | 786-0 renal | OVCAR-4 ovarian | ACHN renal | RPMI-8226 leukemia | OVCAR-3 ovarian | UACC-257 melanoma | SK-MEL-28 melanoma | HCC-2998 colon | NCI-H460 lung | HCT-116 colon | CCRF-CEM leukemia | SW-620 colon | OVCAR-5 ovarian | XF 498 CNS | MALME-3M melanoma | SR leukemia | CAKI-1 renal | LOX IMVI melanoma | KM12 colon | A498 renal | M19-MEL melanoma | RXF 393 renal | MOLT-4 leukemia | NCI-H23 lung | COLO 205 colon | UACC-62 melanoma | HOP-92 NSCLC | SK-MEL-2 melanoma | SK-OV-3 ovarian | HL-60(TB) leukemia | DMS 273 small cell lung | IGROV1 ovarian | DLD-1 colon | NCI-H522 lung | M14 melanoma | UO-31 renal | SK-MEL-5 melanoma | A549 NSCLC

C=CCC12CC(=O)CCC1CC(=O)C2 (centres undefined)
> 100 µM: U251 CNS | SN12C renal | K-562 leukemia | SNB-75 CNS | SNB-19 CNS | KM20L2 colon | SF-539 CNS | TK-10 renal | LXFL 529 NSCLC | HOP-18 NSCLC | HCT-15 colon | HOP-62 NSCLC | SF-268 CNS | OVCAR-8 ovarian | DMS 114 small cell lung | SNB-78 CNS | 786-0 renal | OVCAR-4 ovarian | ACHN renal | RPMI-8226 leukemia | OVCAR-3 ovarian | UACC-257 melanoma | SK-MEL-28 melanoma | HCC-2998 colon | NCI-H460 lung | HCT-116 colon | CCRF-CEM leukemia | NCI-H226 lung | SW-620 colon | MALME-3M melanoma | SR leukemia | CAKI-1 renal | KM12 colon | A498 renal | M19-MEL melanoma | RXF 393 renal | MOLT-4 leukemia | COLO 205 colon | UACC-62 melanoma | SK-MEL-2 melanoma | SK-OV-3 ovarian | HL-60(TB) leukemia | DMS 273 small cell lung | IGROV1 ovarian | DLD-1 colon | NCI-H522 lung | M14 melanoma | UO-31 renal | SK-MEL-5 melanoma | A549 NSCLC

CCCNC(=O)C(C)(Cl)C(=O)c1ccccc1O (centres undefined)
> 100 µM: U251 CNS | SN12C renal | K-562 leukemia | SNB-75 CNS | SNB-19 CNS | KM20L2 colon | SF-539 CNS | TK-10 renal | LXFL 529 NSCLC | HOP-18 NSCLC | HCT-15 colon | HOP-62 NSCLC | SF-268 CNS | OVCAR-8 ovarian | DMS 114 small cell lung | SNB-78 CNS | 786-0 renal | OVCAR-4 ovarian | ACHN renal | RPMI-8226 leukemia | OVCAR-3 ovarian | UACC-257 melanoma | SK-MEL-28 melanoma | HCC-2998 colon | NCI-H460 lung | HCT-116 colon | CCRF-CEM leukemia | NCI-H226 lung | SW-620 colon | MALME-3M melanoma | SR leukemia | CAKI-1 renal | KM12 colon | A498 renal | M19-MEL melanoma | RXF 393 renal | MOLT-4 leukemia | COLO 205 colon | UACC-62 melanoma | SK-MEL-2 melanoma | SK-OV-3 ovarian | HL-60(TB) leukemia | DMS 273 small cell lung | IGROV1 ovarian | DLD-1 colon | NCI-H522 lung | M14 melanoma | UO-31 renal | SK-MEL-5 melanoma | A549 NSCLC

COc1cccc(NC(=O)CC(=O)N2NC(c3ccccc3)C(N=Nc3cccc(C(=O)O)c3)C2=O)c1 (centres undefined)
> 100 µM: U251 CNS | SN12C renal | SNB-75 CNS | SNB-19 CNS | KM20L2 colon | SF-539 CNS | TK-10 renal | EKVX NSCLC | LXFL 529 NSCLC | HOP-62 NSCLC | SF-295 CNS | SF-268 CNS | HT29 colon | OVCAR-8 ovarian | DMS 114 small cell lung | SNB-78 CNS | 786-0 renal | OVCAR-4 ovarian | ACHN renal | RPMI-8226 leukemia | OVCAR-3 ovarian | UACC-257 melanoma | SK-MEL-28 melanoma | HCC-2998 colon | NCI-H460 lung | HCT-116 colon | NCI-H226 lung | SW-620 colon | OVCAR-5 ovarian | XF 498 CNS | MALME-3M melanoma | SR leukemia | CAKI-1 renal | LOX IMVI melanoma | KM12 colon | A498 renal | M19-MEL melanoma | RXF 393 renal | MOLT-4 leukemia | NCI-H23 lung | UACC-62 melanoma | HOP-92 NSCLC | SK-OV-3 ovarian | IGROV1 ovarian | DLD-1 colon | M14 melanoma | UO-31 renal | SK-MEL-5 melanoma | A549 NSCLC

From PubChem BioAssay (NCI)
